Consider four compounds from paper PMC8698070, “The Zoonotic Helminth Parasite Fasciola hepatica: Virulence-Associated Cathepsin B and Cathepsin L Cysteine Peptidases Secreted by Infective Newly Excysted Juveniles (NEJ)” (Animals : an Open Access Journal from MDPI, 2021).

Entries after “also recorded” stand apart in the source; their conditions may differ. Like-named read-outs stand apart in the source and are kept apart here. Where a SMILES comes first, the peptide text is derived from it. The star is where a group is joined. Cbz = O=C(OCc1ccccc1)*

The term Ki denotes the dissociation constant of the complex between target and ligand, obtained from inhibition or displacement. For orientation: Km means the substrate concentration at which the rate is half of its maximum. A word on the kcat: it is the number of substrate molecules converted per active site and unit of time at saturation.

In one series the target is FhCB1 (Fasciola hepatica, UniProt Q8I7B2). Nature of the series: Inhibition of recombinant FhCB1, fluorogenic substrate assay (Z-Phe-Arg-AMC). The class given is biochemical. Particulars: for Ki: read-out: inhibition constant Ki; for inhibition of enzymatic activity (inhibitor screen, Figure 5), in words: FhCB1, inhibitor 1000-15 nM. As to the method: (§1) Recombinant peptidases were assayed for enzymatic activity using a fluorogenic substrate assay. The reactions were carried out in 0.1 M C-P buffer (pH 7.0) with 1 mM DTT in a final volume of 200 μL, in a black 96-well plate. Each well contained activated enzyme (140 nM) and 20 μM fluorogenic substrate, which was added to start the reaction. All assays were run in triplicate at 37 °C for 1 h. Enzyme activity was monitored by rate of hydrolysis and subsequent release of the AMC group on the synthetic peptide substrates at an excitation wavelength of 370 nm and an emission wavelength of 460 nm, as relative fluorescence units (RFU), in a PolarStar Omega Spectrophotometer (BMG Labtech, Aylesbury, UK). All data were plotted and analysed using MARS Data Analysis Software (BMG Labtech, UK) and GraphPad Prism version 5.
(§2) Commercially available inhibitors of cathepsin B (Ca074 and Ca074-OMe), cathepsin L (L, L1, LII, LIII and LIV), cathepsin K (KI, KII and KIII) and cathepsin S were purchased from Merck Millipore (Cork, Ireland; Supplementary Figure S2). The broad-spectrum papain peptidase inhibitor Z-Phe-Ala-FMK was purchased from Enzo Life Sciences (Exeter, UK). These were used to determine and compare the inhibition constant (Ki) against the recombinant FhCBs and FhCL3. All the assays were carried out in 0.1 M C-P buffer with 1 mM DTT and 0.01% Brij® L23, at the pH corresponding to the optimum for each enzyme in a total 200 µL reaction volume. The peptidases (140 nM) were pre-incubated with the inhibitor (1000-15 nM) at room temperature, for 30 min, before starting the reaction by the addition of the substrate that was optimal for each enzyme (FhCB1, Z-Phe-Arg-AMC; FhCB2 and FhCB3, Z-Val-Ile-Arg-AMC; FhCL3, Z-Gly-Pro-Arg-AMC). Substrate concentrations were equal to KM (shown in Table 1) and the apparent inhibition constant (Ki^app) values were calculated with GraphPad Prism 5, using the Morrison equation for tight binding inhibition (Equation (3)). For competitive inhibitors, such as those used in this study, Ki^app was fitted to a second equation (Equation (4)) from which Ki can be determined. (3) vi/vo=1−([E])+[I]+Kiapp)−([E]+[I]+Kiapp)^2−4[E][I] /2[E] (4) Kiapp=Ki(1+[S]/KM)

A further series has as its target FhCL3 (Fasciola hepatica, UniProt A0A879R2T5). As to the kind of experiment: Inhibition of recombinant FhCL3, fluorogenic substrate assay (Z-Gly-Pro-Arg-AMC). The class given is biochemical. Particulars: for inhibition of enzymatic activity (inhibitor screen, Figure 5), in words: FhCL3, inhibitor 1000-15 nM. The procedure:
as §1, §2

The target of another series is FhCB3 (Fasciola hepatica, UniProt A7UNB2). Nature of the series: Inhibition of recombinant FhCB3, fluorogenic substrate assay (Z-Val-Ile-Arg-AMC). The class given is biochemical. To be noted: for inhibition of enzymatic activity (inhibitor screen, Figure 5), in words: FhCB3, inhibitor 1000-15 nM. The procedure: as §1, §2
For a further series, the target named is human cathepsins B. More on the design: method as in PMID 10964677. To be noted: human cathepsin B; cited from earlier work.
The target in a further series is human cathepsins S. More on the design: method as in PMID 10964677. Particulars: human cathepsin S; cited from earlier work.
A further series deals with F. hepatica NEJ. As to the kind of experiment: Viability of NEJ in culture. The series is classed as cell-based, Fasciola hepatica. To be noted: 100 μM inhibitor, 24 h culture, compared to the DMSO group. As to the method:
NEJ were washed three times in a culturing medium (RPMI-1640 medium supplemented with 30 mM HEPES, 0.1% glucose, 10% foetal bovine serum and 50 μg/mL of gentamicin) and their viability assessed by culturing the parasites in 1 mL of culture medium containing 100 μM of the inhibitor at 5% CO2 at 37 °C for 24 h. After incubation, the number of moribund/dead parasites were counted using a light microscope (25× magnification). The criteria used to assess the NEJ viability were loss of motility and peristaltic movement and any obvious damage to the tegument or internal structures, as previously standardized by. The experiments were performed in triplicate. The average of the replicate experimental data was subjected to a two-way ANOVA comparing the values obtained with each inhibitor against the mean of the DMSO control group, with minimum 95% confidence intervals. All the statistical analyses were performed using GraphPad Prism 5.

The next series has as its target T1, cathepsin L1 (HsCL1) (Homo sapiens, UniProt P07711).
T1 construct: purchased Sigma-Aldrich; host or cells: human embryonic kidney cells
Nature of the series: Inhibitor screen against human cathepsin L1 control. The class given is biochemical.
Source text: (§3) The Schistosoma mansoni cathepsin B1 (SmCB1) was also produced in our laboratory using P. pastoris as described above. The human cathepsin B (HsCB) and cathepsin L1 (HsCL1) were produced in human embryonic kidney cells (Sigma-Aldrich).
as §2
A panel of 12 commercially available cysteine peptidase inhibitors that preferentially target mammalian cathepsin B (Ca074 and Ca074-OMe), cathepsin L (L, L1, LII, LIII and LIV) cathepsin S (S) and cathepsin K (KI, KII and KIII) were screened against the FhCBs, FhCL3 and, as controls, HsCB and HsCL1. The broad-range cysteine peptidase inhibitor Z-Phe-Ala-FMK was also included (Figure 5).
Figure 5 Profile of inhibition of FhCB1, FhCB2, FhCB3 and FhCL3. Commercially available inhibitors of cathepsin B (Ca074 and Ca07a-OMe), cathepsin L (L, L1, LII, LIII and LIV), cathepsin K (KI, KII and KIII), cathepsin S and the broad-spectrum papain peptidase inhibitor Z-Phe-Ala-FMK (A–L) were used to determine and compare the inhibition constant against recombinants FhCB1, FhCB2, FhCB3, FhCL3, HsCB and HsCL1. Activity is represented as the percentage of enzymatic activity observed by hydrolysis of a fluorogenic quenched peptide substrate following a pre-incubation with inhibitor in relation to the activity of the enzyme alone. Error bars indicate standard deviation of three replicates.

In a further series the target is T2, human cathepsin B (HsCB) (Homo sapiens, UniProt P07858).
T2 construct: purchased Sigma-Aldrich; host or cells: human embryonic kidney cells
As to the kind of experiment: Inhibitor screen against human cathepsin B control. The series is classed as biochemical.
Source text: as §3
as §2, with “All the assays were carried out in 0.1 M C-P buffer with 1 mM DTT and 0.01% Brij® L23, at the pH corresponding to the optimum for each enzyme in a total 200 µL reaction volume. The peptidases (140 nM) were pre-incubated with the inhibitor (1000-15 nM) at room temperature, for 30 min, before starting the reaction by the addition of the substrate that was optimal for each enzyme (FhCB1, Z-Phe-Arg-AMC; FhCB2 and FhCB3, Z-Val-Ile-Arg-AMC; FhCL3, Z-Gly-Pro-Arg-AMC).” left out
The broad-range cysteine peptidase inhibitor Z-Phe-Ala-FMK was also included (Figure 5).
Figure 5 Profile of inhibition of FhCB1, FhCB2, FhCB3 and FhCL3. Commercially available inhibitors of cathepsin B (Ca074 and Ca07a-OMe), cathepsin L (L, L1, LII, LIII and LIV), cathepsin K (KI, KII and KIII), cathepsin S and the broad-spectrum papain peptidase inhibitor Z-Phe-Ala-FMK (A–L) were used to determine and compare the inhibition constant against recombinants FhCB1, FhCB2, FhCB3, FhCL3, HsCB and HsCL1. […] Error bars indicate standard deviation of three replicates.

For a further series, the target named is FhCB2 (Fasciola hepatica, UniProt A5X493). Nature of the series: Inhibition of recombinant FhCB2, fluorogenic substrate assay (Z-Val-Ile-Arg-AMC). The series is classed as biochemical. To be noted: for inhibition of enzymatic activity (inhibitor screen, Figure 5), in words: FhCB2, inhibitor 1000-15 nM; for Ki: read-out: inhibition constant Ki. The procedure:
as §1, §2

Series [1] deals with Cc1cc(=O)oc2cc(NC(=O)[C@H](CCCNC(=N)N)NC(=O)[C@@H]3CCCN3C(=O)CNC(=O)OCc3ccccc3)ccc12. Nature of the series: purified protein, by the assay type. Particulars: other: FhCB3; substrate 2000–4 μM, optimum pH; ± standard deviation; pH 7.0; 37.0 °C.
Protocol: (§4) To determine the kinetic constants, Kcat, KM and Kcat/KM of the activated peptidases against the Z-Phe-Arg-AMC, Z-Gly-Pro-Arg-AMC and Z-Val-Ile-Arg-AMC substrates were used at concentrations of 2000–4 μM over a series of 10 dilutions using enzymes, buffer and assay conditions as described above. The kinetic constants, KM and Vmax, were calculated using the Michaelis–Menten equation (Equation (1)) in a non-linear regression analysis of initial reaction velocity against substrate concentration (built into GraphPad Prism 5). The value of KM can then be fitted to Equation (2) to determine the catalytic constant Kcat. (1) ν=d[P]/dt=Vmax[S]/KM+[S] where ν is the initial reaction velocity, [P] is the concentration of the formed product, [S] is the substrate concentration, Vmax is the maximum rate achieved by the system and KM is the Michaelis–Menten constant, which represents the concentration of substrate at which the reaction has a rate equal to half of Vmax. (2) ν=Kcat[Et]{}[S]/KM+[S] where [Et] is the enzyme concentration and Kcat is the catalytic constant, representing the measure of substrate molecules converted to product by enzyme per second.
The test system of series [2] is CC[C@H](C)[C@H](NC(=O)[C@@H](NC(=O)OCc1ccccc1)C(C)C)C(=O)N[C@@H](CCCNC(=N)N)C(=O)Nc1ccc2c(C)cc(=O)oc2c1. As to the kind of experiment: purified protein, by the assay type. Particulars: other: FhCB3; substrate 2000–4 μM, optimum pH; ± standard deviation; pH 7.0; 37.0 °C.
Protocol: as §4
The subject of series [3] is Cc1cc(=O)oc2cc(NC(=O)[C@H](CCCNC(=N)N)NC(=O)[C@H](Cc3ccccc3)NC(=O)OCc3ccccc3)ccc12. Nature of the series: purified protein, by the assay type. To be noted: other: FhCB3; substrate 2000–4 μM, optimum pH; ± standard deviation; pH 7.0; 37.0 °C.
Protocol: as §4
Setting [4] is: recombinant FhCB1 140 nM, 30 min pre-incubation, substrate Z-Phe-Arg-AMC at KM, optimum pH, ± SEM.
The mark [5] stands for this setting: recombinant FhCL3 140 nM, 30 min pre-incubation, substrate Z-Gly-Pro-Arg-AMC at KM, optimum pH, ± SEM, read-out: inhibition constant Ki.
Setting [6] is: recombinant FhCB3 140 nM, 30 min pre-incubation, substrate Z-Val-Ile-Arg-AMC at KM, optimum pH, ± SEM, read-out: inhibition constant Ki.
[7] abbreviates: recombinant FhCB2 140 nM, 30 min pre-incubation, substrate Z-Val-Ile-Arg-AMC at KM, optimum pH, ± SEM.

Chain of FhCB3 (A7UNB2 entry or part of it): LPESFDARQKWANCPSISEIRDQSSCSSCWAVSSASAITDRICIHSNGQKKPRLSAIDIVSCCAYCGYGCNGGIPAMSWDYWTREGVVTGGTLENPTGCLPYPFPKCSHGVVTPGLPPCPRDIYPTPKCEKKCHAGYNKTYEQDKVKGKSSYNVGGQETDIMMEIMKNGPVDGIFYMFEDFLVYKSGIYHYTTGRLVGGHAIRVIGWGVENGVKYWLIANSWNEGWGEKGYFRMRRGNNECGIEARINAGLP
Chain of FhCL3 (A0A879R2T5 entry or part of it): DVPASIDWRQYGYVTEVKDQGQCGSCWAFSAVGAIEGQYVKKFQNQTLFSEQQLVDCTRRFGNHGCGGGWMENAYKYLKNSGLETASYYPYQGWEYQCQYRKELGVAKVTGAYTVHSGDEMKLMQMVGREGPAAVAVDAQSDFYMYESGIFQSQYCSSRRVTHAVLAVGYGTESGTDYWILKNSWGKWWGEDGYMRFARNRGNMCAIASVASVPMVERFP
Chain of FhCB1 (Q8I7B2 entry or part of it): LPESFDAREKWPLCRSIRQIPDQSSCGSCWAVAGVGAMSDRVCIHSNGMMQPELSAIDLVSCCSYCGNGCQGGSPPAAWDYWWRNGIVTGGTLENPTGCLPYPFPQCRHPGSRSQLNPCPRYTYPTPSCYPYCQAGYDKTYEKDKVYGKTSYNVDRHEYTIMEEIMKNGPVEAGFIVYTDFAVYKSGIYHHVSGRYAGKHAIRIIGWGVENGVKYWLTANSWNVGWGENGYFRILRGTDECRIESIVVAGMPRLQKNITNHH
Chain of FhCB2 (A5X493 entry or part of it): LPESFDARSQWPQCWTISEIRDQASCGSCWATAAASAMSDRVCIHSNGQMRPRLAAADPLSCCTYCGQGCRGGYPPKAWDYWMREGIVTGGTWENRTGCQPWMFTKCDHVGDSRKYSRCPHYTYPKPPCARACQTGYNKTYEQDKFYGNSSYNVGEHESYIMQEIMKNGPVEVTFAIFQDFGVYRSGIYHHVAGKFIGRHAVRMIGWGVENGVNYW
T1 sequence (P07711 114-333): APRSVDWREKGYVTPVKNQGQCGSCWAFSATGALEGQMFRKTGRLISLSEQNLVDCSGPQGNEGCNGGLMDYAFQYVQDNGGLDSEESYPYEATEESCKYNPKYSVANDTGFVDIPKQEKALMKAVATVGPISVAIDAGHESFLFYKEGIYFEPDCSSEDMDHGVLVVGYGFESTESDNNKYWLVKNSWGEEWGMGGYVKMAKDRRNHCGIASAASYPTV

As to `CC(C)C[C@H](NC(=O)[C@H](Cc1ccccc1)NC(=O)OCc1ccccc1)C(=O)C=O` [S], the inhibition constant (Ki) at FhCB1 (setting [4]) is 14 ± 2.42 nM; at FhCL3 (inhibition constant Ki, recombinant FhCL3 140 nM, 30 min pre-incubation, substrate Z-Gly-Pro-Arg-AMC at KM, optimum pH, ± SEM), 35 ± 2.4 nM; at FhCB3, 696 ± 94.8 nM; at human cathepsins B, 76 nM; on human cathepsins S it was 0.185 nM. The “reduction of NEJ viability (survival)” value in the series on F. hepatica NEJ was ~ 55%.

Regarding `O=CC(Cc1ccc(O)cc1)NC(=O)C(Cc1ccccc1)NC(=O)OCc1ccccc1` (stereo not drawn) [LII] (Cbz-Phe-Tyr-aldehyde; configuration not given here), the “inhibition of enzymatic activity (inhibitor screen, Figure 5), in words” value against cathepsin L1 (HsCL1) was “specificity for HsCL1 over HsCBs; also recorded: inhibited”; on FhCB1 it was “most effective at reducing the enzymatic activity”; on FhCL3, “most effective at reducing the enzymatic activity”; against human cathepsin B (HsCB), “inhibited”; at FhCB3 it was “most effective at reducing the enzymatic activity”; at FhCB2 it was “most effective at reducing the enzymatic activity”. Further, the values for the Ki on FhCL3 (setting [5]), on FhCB3 (setting [6]) and at FhCB2 (setting [7]) were 8 ± 0.6 nM, 211 ± 34.8 nM and 1840 ± 77 nM, respectively.

Consider `CCCNC(=O)[C@H]1O[C@@H]1C(=O)N[C@H](C(=O)N1CCC[C@H]1C(=O)O)[C@@H](C)CC` [Ca074], for which the “inhibition of enzymatic activity (inhibitor screen, Figure 5), in words” value at FhCB1 is “poor inhibitors; also recorded: very poor inhibitors”; at FhCL3, “poor inhibitors”; against human cathepsin B (HsCB), “selective for HsCB compared to HsCL1”; on FhCB3, “poor inhibitors; also recorded: very poor inhibitors”; at FhCB2 it was “poor inhibitors; also recorded: very poor inhibitors”. The “inhibition constant Ki” value is on record as “poor inhibition” at FhCB1 (setting [4]); “poor inhibition” on FhCL3 (recombinant FhCL3 140 nM, 30 min pre-incubation, substrate Z-Gly-Pro-Arg-AMC at KM, optimum pH, ± SEM); “poor inhibition” on FhCB3 (recombinant FhCB3 140 nM, 30 min pre-incubation, substrate Z-Val-Ile-Arg-AMC at KM, optimum pH, ± SEM); “poor inhibition” on FhCB2 (setting [7]). For the same compound, the Ki was 7320 ± 934 nM at FhCB1 (setting [4]), 603 ± 133 nM on FhCL3 (setting [5]), 540 ± 45.2 nM at FhCB3 (setting [6]) and 5930 ± 567 nM at FhCB2 (setting [7]).

With FhCB3 (Fasciola hepatica), in [1], the Michaelis-Menten constant (Km) stood at 40 ± 4 µM, the turnover number (kcat) was found to be 0.02 ± 0.002 s⁻¹ and the kcat/Km came out at 579 M^-1S^-1. For the same compound, in series [2], the Km was determined as 42 ± 4 µM, the kcat was found to be 0.1 ± 0.004 s⁻¹ and the kcat/Km came out at 2266 M^-1S^-1. In series [3], the Km stood at 27 ± 2 µM, the kcat was determined as 0.05 ± 0.007 s⁻¹ and the kcat/Km came to 1708 M^-1S^-1.
